Literature values, collected in article PMC2862725 (Molecular cancer therapeutics, 2009).
Like-named read-outs stand apart in the source and are kept apart here.

Experiments:
[1] = n = 5, two patients with malignant gliomas
[2] = wild-type tumor group; set equal to single-dose PK/PD model ref 9
[3] = vIII mutant tumor group; set equal to single-dose PK/PD model ref 9

COc1cc2ncnc(Nc3ccc(F)c(Cl)c3)c2cc1OCCCN1CCOCC1 [gefitinib, Gefitinib]
gefitinib brain tumor concentration, mean [1]: 9.4 ± 9.3 µg/g | Vc volume of distribution of the central compartment [2]: 75.0 mL | Vc volume of distribution of the central compartment [3]: 103.8 mL
